The first experiment concerns the target CDK2 (human) (UniProt P24941). Put plainly: Enzyme Assay.
Conditions: not given
In turn, `Nc1nc(NC2CCN(S(=O)(=O)CCCn3cncn3)CC2)sc1C(=O)c1c(F)cccc1F` returned a Ki of 4.4 nM. The compound `CC(=O)/C=C/C(=O)N1CCC(Nc2nc(N)c(C(=O)c3c(F)cccc3F)s2)CC1` came in with a Ki of 500 nM.

`CN(C)CCNc1ccc(S(=O)(=O)N2CCC(Nc3nc(N)c(C(=O)c4c(F)cccc4F)s3)CC2)cn1` returned a Ki of 1.2 nM.

As to `Nc1nc(NC2CCN(S(=O)(=O)c3ccc(CCN4CCC(c5ccccc5)C4)nc3)CC2)sc1C(=O)c1c(F)cccc1F` (stereo unspecified), the inhibition constant Ki was determined as 1.8 nM.

The experiment is the same for the next values; noted with them: concentration not given here.
Turning to `Nc1nc(NC2CCN(C(=O)Cc3cccc4ccccc34)CC2)sc1C(=O)c1c(F)cccc1F`, the inhibition is 51%. Same read-out and setting: for `Cc1cc(C)c(S(=O)(=O)N2CCC(Nc3nc(N)c(C(=O)c4c(F)cccc4F)s3)CC2)c(C)c1` the value was -14%; for `COc1cc(C)ccc1C(=O)N1CCC(Nc2nc(N)c(C(=O)c3c(F)cccc3F)s2)CC1`, 59%; for `Cc1ccc(C)c(CCCC(=O)N2CCC(Nc3nc(N)c(C(=O)c4c(F)cccc4F)s3)CC2)c1`, 41%. Still for that read-out and setting: for `Cc1cccc(Cl)c1C(=O)N1CCC(Nc2nc(N)c(C(=O)c3c(F)cccc3F)s2)CC1` the value was 47%.

For `C[C@](O)(C(=O)N1CCC(Nc2nc(N)c(C(=O)c3c(F)cccc3F)s2)CC1)c1ccccc1`, the inhibition was 77%.

As for `Nc1nc(NC2CCN(C(=O)c3ccccc3C(F)(F)F)CC2)sc1C(=O)c1c(F)cccc1F`, the inhibition is -12%.

In the case of `Nc1nc(NC2CCN(C(=O)C(O)c3ccccc3Cl)CC2)sc1C(=O)c1c(F)cccc1F` (stereo unspecified), the inhibition was determined as 51%. `Nc1nc(NC2CCN(C(=O)c3cnnc4ccccc34)CC2)sc1C(=O)c1c(F)cccc1F`: the inhibition came out at 28%. Consider `COc1ccc(OCC(=O)N2CCC(Nc3nc(N)c(C(=O)c4c(F)cccc4F)s3)CC2)cc1`, for which the inhibition came out at 74%. Same read-out and setting: under `Cc1nn(C)c2ncc(C(=O)N3CCC(Nc4nc(N)c(C(=O)c5c(F)cccc5F)s4)CC3)c(Cl)c12` stands 16%. The same measure, in the same setting: under `Nc1nc(NC2CCN(C(=O)CCc3ccc4c(c3)OCO4)CC2)sc1C(=O)c1c(F)cccc1F` stands 49%. Still for that read-out and setting: under `Nc1nc(NC2CCN(C(=O)c3c(F)cccc3F)CC2)sc1C(=O)c1c(F)cccc1F` stands -20%; under `CSCC(=O)N1CCC(Nc2nc(N)c(C(=O)c3c(F)cccc3F)s2)CC1`, 84%; under `Cc1ccc(C(=O)/C=C/C(=O)N2CCC(Nc3nc(N)c(C(=O)c4c(F)cccc4F)s3)CC2)cc1`, 78%. For `Nc1nc(NC2CCN(C(=O)C3CC(=O)c4ccccc43)CC2)sc1C(=O)c1c(F)cccc1F` (stereo unspecified), the inhibition is 79%. On the same count and under the same terms, for `Nc1nc(NC2CCN(C(=O)/C=C/c3cccc(Cl)c3)CC2)sc1C(=O)c1c(F)cccc1F` the value was 24%; for `Nc1nc(NC2CCN(C(=O)C(O)c3cc(F)cc(F)c3)CC2)sc1C(=O)c1c(F)cccc1F` (stereo unspecified), 52%; for `Nc1nc(NC2CCN(C(=O)Cc3cccc(O)c3)CC2)sc1C(=O)c1c(F)cccc1F`, 44%. On the same count and under the same terms, for `Nc1nc(NC2CCN(S(=O)(=O)c3cccc4cccnc34)CC2)sc1C(=O)c1c(F)cccc1F` the value was -32%; for `CN1CCC[C@H]1C(=O)N1CCC(Nc2nc(N)c(C(=O)c3c(F)cccc3F)s2)CC1`, 39%; for `Nc1cccc(CC(=O)N2CCC(Nc3nc(N)c(C(=O)c4c(F)cccc4F)s3)CC2)c1`, 61%. The same measure, in the same setting: under `CCCCCCC(=O)N1CCC(Nc2nc(N)c(C(=O)c3c(F)cccc3F)s2)CC1` stands 59%. Take `Nc1nc(NC2CCN(C(=O)C3CCCO3)CC2)sc1C(=O)c1c(F)cccc1F` (stereo unspecified): the inhibition turned out to be 27%.

For the compound `CC(=O)Oc1c(C)cccc1C(=O)N1CCC(Nc2nc(N)c(C(=O)c3c(F)cccc3F)s2)CC1`, the inhibition was 50%.

Consider `Nc1nc(NC2CCN(C(=O)c3cccc(F)c3F)CC2)sc1C(=O)c1c(F)cccc1F`, for which the inhibition worked out at 11%.

On to `Nc1nc(NC2CCN(C(=O)Cc3cccs3)CC2)sc1C(=O)c1c(F)cccc1F`, for which the inhibition was determined as 73%.

As to `CN(C(=O)N1CCC(Nc2nc(N)c(C(=O)c3c(F)cccc3F)s2)CC1)c1ccccc1`, the inhibition is -7%. Still for that read-out and setting: under `Cc1ccc(C(C)C)c(C(=O)N2CCC(Nc3nc(N)c(C(=O)c4c(F)cccc4F)s3)CC2)c1O` stands 30%; under `Nc1nc(NC2CCN(C(=O)C/C=C/c3ccccc3)CC2)sc1C(=O)c1c(F)cccc1F`, 29%. For the compound `Cc1cc(F)ccc1OCC(=O)N1CCC(Nc2nc(N)c(C(=O)c3c(F)cccc3F)s2)CC1`, the inhibition came out at 80%. Still for that read-out and setting: under `CC(CO)(CO)C(=O)N1CCC(Nc2nc(N)c(C(=O)c3c(F)cccc3F)s2)CC1` stands 17%; under `Nc1nc(NC2CCN(C(=O)c3cnccc3C(F)(F)F)CC2)sc1C(=O)c1c(F)cccc1F`, 18%; under `COc1ccc(Cl)cc1C(=O)N1CCC(Nc2nc(N)c(C(=O)c3c(F)cccc3F)s2)CC1`, 18%.

Regarding `NC(=O)Nc1ccc(C(=O)N2CCC(Nc3nc(N)c(C(=O)c4c(F)cccc4F)s3)CC2)cc1`, the inhibition came out at 76%. Still for that read-out and setting: under `C=CCc1ccccc1OCC(=O)N1CCC(Nc2nc(N)c(C(=O)c3c(F)cccc3F)s2)CC1` stands 76%; under `CCC/C=C/CC(=O)N1CCC(Nc2nc(N)c(C(=O)c3c(F)cccc3F)s2)CC1`, 49%; under `CCOc1ccccc1/C=C/C(=O)N1CCC(Nc2nc(N)c(C(=O)c3c(F)cccc3F)s2)CC1`, 80%. Still for that read-out and setting: for `CCOC(=O)CC(=O)N1CCC(Nc2nc(N)c(C(=O)c3c(F)cccc3F)s2)CC1` the value was -13%. For `CC(C)C(C(=O)N1CCC(Nc2nc(N)c(C(=O)c3c(F)cccc3F)s2)CC1)c1ccccc1` (stereo unspecified), the inhibition was found to be 29%. On to `CN(C)c1ccc(/C=C/C(=O)N2CCC(Nc3nc(N)c(C(=O)c4c(F)cccc4F)s3)CC2)cc1`, for which the inhibition was determined as 75%.

Regarding `Nc1nc(NC2CCN(C(=O)c3ccoc3)CC2)sc1C(=O)c1c(F)cccc1F`, the inhibition turned out to be 34%. Consider `Cc1ccnc(SCC(=O)N2CCC(Nc3nc(N)c(C(=O)c4c(F)cccc4F)s3)CC2)n1`, for which the inhibition came out at 86%. As to `COC1CCCC(C(=O)N2CCC(Nc3nc(N)c(C(=O)c4c(F)cccc4F)s3)CC2)C1` (stereo unspecified), the inhibition was determined as 63%.

As to `Cc1ccc(C)c(OCC(=O)N2CCC(Nc3nc(N)c(C(=O)c4c(F)cccc4F)s3)CC2)c1`, the inhibition came out at 26%. On to `CC(=O)N1CCC(C(=O)N2CCC(Nc3nc(N)c(C(=O)c4c(F)cccc4F)s3)CC2)CC1`, for which the inhibition turned out to be 36%. Same read-out and setting: under `COc1ccc(C(=O)N2CCC(Nc3nc(N)c(C(=O)c4c(F)cccc4F)s3)CC2)c(OC)n1` stands 51%; under `Cc1cc(C)cc(CC(=O)N2CCC(Nc3nc(N)c(C(=O)c4c(F)cccc4F)s3)CC2)c1`, 75%.

Take `Nc1nc(NC2CCN(C(=O)CCc3cccc(O)c3)CC2)sc1C(=O)c1c(F)cccc1F`: the inhibition amounted to 40%. Still for that read-out and setting: under `N#Cc1ccc(/C=C/C(=O)N2CCC(Nc3nc(N)c(C(=O)c4c(F)cccc4F)s3)CC2)cc1` stands 41%; under `Nc1nc(NC2CCN(C(=O)CCC(=O)c3cccs3)CC2)sc1C(=O)c1c(F)cccc1F`, 63%.

On to `CC(=O)SC(C)CC(=O)N1CCC(Nc2nc(N)c(C(=O)c3c(F)cccc3F)s2)CC1` (stereo unspecified), for which the inhibition was found to be 50%. On the same count and under the same terms, under `Nc1nc(NC2CCN(C(=O)COc3ccccc3O)CC2)sc1C(=O)c1c(F)cccc1F` stands 63%; under `CC(=O)N1CSC[C@H]1C(=O)N1CCC(Nc2nc(N)c(C(=O)c3c(F)cccc3F)s2)CC1`, 20%. The same measure, in the same setting: for `COc1ccc(C(O)C(=O)N2CCC(Nc3nc(N)c(C(=O)c4c(F)cccc4F)s3)CC2)cc1` (stereo unspecified) the value was 58%; for `C[C@@H](O)CC(=O)N1CCC(Nc2nc(N)c(C(=O)c3c(F)cccc3F)s2)CC1`, 72%; for `CC(=O)/C=C/C(=O)N1CCC(Nc2nc(N)c(C(=O)c3c(F)cccc3F)s2)CC1`, 5%. The same measure, in the same setting: under `Cc1ccc(/C=C/C(=O)N2CCC(Nc3nc(N)c(C(=O)c4c(F)cccc4F)s3)CC2)cc1C` stands 52%. Take `Nc1nc(NC2CCN(C(=O)CCC3CCCCC3=O)CC2)sc1C(=O)c1c(F)cccc1F` (stereo unspecified): the inhibition is 50%. On to `CCCCOCC(=O)N1CCC(Nc2nc(N)c(C(=O)c3c(F)cccc3F)s2)CC1`, for which the inhibition is 79%. The same measure, in the same setting: under `C/C=C/C(=O)N1CCC(Nc2nc(N)c(C(=O)c3c(F)cccc3F)s2)CC1` stands -9%; under `COc1ccccc1/C=C/C(=O)N1CCC(Nc2nc(N)c(C(=O)c3c(F)cccc3F)s2)CC1`, 92%.

Take `Nc1nc(NC2CCN(C(=O)c3ccc(-n4cccc4)nc3)CC2)sc1C(=O)c1c(F)cccc1F`: the inhibition is 61%.

Regarding `COc1cc(C(O)C(=O)N2CCC(Nc3nc(N)c(C(=O)c4c(F)cccc4F)s3)CC2)ccc1O` (stereo unspecified), the inhibition was determined as 26%. For `Nc1nc(NC2CCN(C(=O)CCc3c[nH]c4ccccc34)CC2)sc1C(=O)c1c(F)cccc1F`, the inhibition was 56%. Same read-out and setting: under `COc1ccc(CC(=O)N2CCC(Nc3nc(N)c(C(=O)c4c(F)cccc4F)s3)CC2)cc1C` stands 62%. Same read-out and setting: under `Nc1nc(NC2CCN(C(=O)CSc3ccncc3)CC2)sc1C(=O)c1c(F)cccc1F` stands 23%; under `Cc1ncccc1C(=O)N1CCC(Nc2nc(N)c(C(=O)c3c(F)cccc3F)s2)CC1`, 52%. On the same count and under the same terms, under `Nc1nc(NC2CCN(C(=O)c3ccccc3OC(F)(F)F)CC2)sc1C(=O)c1c(F)cccc1F` stands -6%; under `CC(C)CC(O)C(=O)N1CCC(Nc2nc(N)c(C(=O)c3c(F)cccc3F)s2)CC1` (stereo unspecified), 57%.

As for `Cc1ccccc1C(=O)N1CCC(Nc2nc(N)c(C(=O)c3c(F)cccc3F)s2)CC1`, the inhibition is -11%. On the same count and under the same terms, for `COc1ccc(CC(=O)N2CCC(Nc3nc(N)c(C(=O)c4c(F)cccc4F)s3)CC2)cc1OC` the value was 55%; for `COCCC(=O)N1CCC(Nc2nc(N)c(C(=O)c3c(F)cccc3F)s2)CC1`, 33%.

In the case of `CC(=O)c1ccc(O)c(C(=O)N2CCC(Nc3nc(N)c(C(=O)c4c(F)cccc4F)s3)CC2)c1`, the inhibition stood at 9%. On the same count and under the same terms, under `CN(C)c1ccc(NC(=O)N2CCC(Nc3nc(N)c(C(=O)c4c(F)cccc4F)s3)CC2)cc1` stands 23%; under `Nc1nc(NC2CCN(C(=O)c3cnccn3)CC2)sc1C(=O)c1c(F)cccc1F`, 58%; under `Nc1nc(NC2CCN(C(=O)c3ccsc3)CC2)sc1C(=O)c1c(F)cccc1F`, 52%.

The values are drawn from the Kinase Knowledgebase extract (Sharma et al. 2016).
